From patent US6468522B1, “Controlled release of thioamide moiety-containing therapeutic agents” (priority 1999, dated 2002)

Key:
[1] = Reductive release of drug from disulfide conjugate (DTT or glutathione, TLC); type: physicochemical; settings: organic phase
Method: III Release of UC781 from mPEG-S—S-UC781. […] Then, 0.5 ml of 6 mM dithiothreitol (DTT) in DCM was added to the conjugate solution.
After 2 hours at room temperature, the reaction mixture was taken to dryness by speed vacuum.
In an alternate procedure to the above, cysteamine may be used in place of 1-amino-2-methyl-2-propanethiol, which produces a UC781 conjugate (PEG-CO—NH—CH2—CH2—S—S—UC781) with less sterically hindered thiol groups and therefore with a ˜100-fold faster release under reducing conditions.

[2] = Kinetics following intravenous injection of PEG-S-S-UC781 in rabbits; type: in vivo; settings: rabbit
Method: The wavelength for detection of UC781 is 290 nm.
An in-vivo experiment was done in duplicate in rabbits (about 3.6 kg, New Zealand white, female), performed according to protocol #I99-054 approved by the IACUC of UMDNJ-Robert Wood Johnson Medical School. […] Blood samples were drawn from the auricular artery of the opposite ear prior to and at predetermined time points after injection. Immediately after the blood was drawn, 1 ml was mixed with 2 ml of acetonitrile, vortexed, kept on ice for 10 min and then centrifuged at 1000×g for 10 min at 4° C. The supernatant was collected and analyzed by reverse phase HPLC, as described above. Blood levels were determined with time by HPLC with and without the DTT reductive cleavage step (FIG. 7).

[3] = Kinetics following intramuscular injection of PEG-S-S-UC781 in mice; type: in vivo
Method: An in-vivo experiment was done twice in mice (about 25 g, […]), performed according to protocol #I00-001, approved by the IACUC. […] Twenty mg, equivalent to 0.5 mg of UC781, was dissolved in 1 ml of PBS and injected into the leg muscle. At each time point, a mouse was euthanized, blood was collected and the injected muscle was removed. The blood samples were treated with 2 volumes of acetonitrile as described above. The tissue samples were homogenized with 1 ml of PBS and then treated with 2 volumes of acetonitrile, as above. The samples were then analyzed by reverse phase HPLC. […] Recovery and extraction efficiency from the muscle was tested by injection into the excised muscle from a freshly euthanized mouse.

[4] = target: HIV-RT (Human immunodeficiency virus type 1 group M subtype B, UniProt P03366); test: Reverse transcriptase (RT) inhibition assay; type: biochemical; settings: for UC781 concentration found by RT assay: predicted 30 nM
Method: UC781 standard solutions were prepared in DMSO. The stock solution of HIV-RT (13.5 Units/μl) was diluted to 25 mUnits/μl in buffer comprising 50 mM Tris-HCl, pH 8.0, 1 mM DTT, 0.01% bovine serum albumin (BSA). Each assay tube contained 40 μl of a solution comprising 50 mM Tris-HCl, pH 8.0, 4 mM DTT, 12.4 mM MgCl2, 50 mM KCl, 0.01% BSA, 10 μg/ml poly(A), 0.01 mM dTTP and […] [α-^32P]dTTP, 2 μl of diluted RT and 3 μl of sample dissolved in DMSO. Samples were incubated at 37° C. for 30 minutes. The polymerization reaction was stopped by adding 0.15 mg/ml of salmon sperm DNA and chilling on ice. An aliquot (20 μl) of each reaction mixture was spotted onto square stamped GF/C filter paper (12.5 cm in diameter) presoaked with 10% trichloroacetic acid (TCA). After the spots were dry, the paper was rinsed with 50 ml of ice cold 10% TCA twice, 50 ml of ice cold water three times and then once with 25 ml of ice cold 95% ethanol in a Buchner funnel. The paper was dried, cut into squares and each square was counted in 4 ml of LSC cocktail (National Diagnostics).
The reverse transcriptase inhibition (RT) assay was used to confirm that the compound released in blood is truly active UC781. […] As a control, authentic UC781 was run on the HPLC column and the peak was collected at 24.2 minutes. […] An aliquot of each HPLC fraction, providing a predicted concentration of 30 nM in the RT assay, was analyzed.

[5] = in vitro; settings: rabbit
Method: UC781 was analyzed using an HPLC reverse phase column, PRP-1 (Hamilton, Reno, Nev.), under the following condition: mobile phase A: 20% acetonitrile, mobile phase B: 90% acetonitrile, flow rate: 1 ml/min. Gradient: 0-2 min, 100% A; 2-20 min, linear gradient from 100% A to 100% B; 20-28 min, 100% B; 28—30 min, linear gradient from 100% B to 100% A; 30-35 min, 100% A. Under these experimental conditions, the retention time for UC781 is 24.2 min. The wavelength for detection of UC781 is 290 nm.
To each 1 ml sample of EDTA-treated rabbit blood, 2 ml of acetonitrile was added, mixed and kept on ice for 10 min. The mixture was centrifuged at 1000×g for 10 min. The supernatant was collected and an aliquot (300 μl) was injected into the reverse phase column. […] After centrifugation, 400 μl of the supernatant was analyzed, either without or with DTT pretreatment (3 mM for 2 hours at room temperature).
However, prior reduction with DTT should give the total concentration of UC781 since the conjugated UC781 is converted into the free form prior to HPLC. […] Recovery through the extraction procedure was determined by spiking a known amount of either free or conjugated UC781 into EDTA-treated rabbit blood prior to acetonitrile extraction.

In the case of `O=c1[nH]c(=S)ccn1[C@@H]1O[C@H](CO)[C@@H](O)[C@H]1O` [4-thiouridine, 4-Thiouridine], the “release of drug from conjugate by DTT” value [1] is reported as “reductively released”.
For `CC(C)=CCOc1cc(NC(=S)c2ccoc2C)ccc1Cl` [UC781, N-[4-chloro-3-(3-methyl-2-butenyloxy)phenyl]-2-methyl-3-furancarbothioamide], the “UC781 concentration in plasma higher than in matched whole blood” value ([2]; EDTA-treated blood, duplicate sample) was “about 10%”, the “half-life of UC781 in the bloodstream” value ([2]; after iv PEG-S-S-UC781) was “several minutes” and the “level of UC781 in tissue samples” value ([3]; mouse injected muscle, after 1 hour) was “more than 10%”. For the same compound, the “UC781 in blood samples” value ([3]; mouse, im, HPLC) was “below the detection limit”, the “UC781 concentration found by RT assay” value ([4]; HPLC peak fraction of rabbit blood 5 min after iv PEG-S-S-UC781) was 26 nM and the “activity of compound recovered from blood” value ([4]; RT assay, blood versus standard) was “fully active”. The “UC781 concentration found by RT assay” value ([4]; authentic UC781 standard HPLC fraction) was 27 nM and the recovery at 10 min, 10 µg/mL [5] was 113%.
